Test results published in the supplement of paper PMC10627819.

Experiments:
S. aureus DSM 20231 [1] = experiment: fitness (endpoint OD595 vs no drug) (fraction); higher = more growth
In short: (§1)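 Each well of a 384-well plate received 30 µl of culture at OD595 0.01, or 55 µl for S. pneumoniae. TSB, LB Lennox or CY served as media at 37 °C. OD595 was taken every 30 min for 14 h and corrected by subtracting the first reading. Fitness is the optical density at stationary-phase entry divided by the robust mean of no-drug controls, capped at 1.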

B. subtilis 168 [2] = experiment: as above
In short: as §1

S. aureus DSM 20231 [3] = experiment: Bliss interaction score (quartile over a dose matrix) (fitness difference); higher = more antagonism (negative = synergy)
In short: (§2)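 The Bliss score is observed minus expected fitness, where expected fitness is the product of the single-drug fitness values inferred from the combination data. Fitness is the OD595 at the onset of stationary phase over the plate's robust no-drug mean, capped at 1. Scores are summarised by quartiles over technical, biological and donor/recipient replicates.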

S. aureus Newman [4] = experiment: as above
In short: as §2

B. subtilis 168 [5] = experiment: as above
In short: as §2

S. pneumoniae D39V [6] = experiment: as above
In short: as §2

S. aureus Newman [7] = experiment: fitness (endpoint OD595 vs no drug) (fraction); higher = more growth
In short: as §1

S. pneumoniae D39V [8] = experiment: as above
In short: as §1
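Throughout, for Bliss interaction score (quartile over a dose matrix): first quartile when negative (synergy) and third quartile when positive (antagonism).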

C[n+]1ccc(-c2cc[n+](C)cc2)cc1 [Paraquat] + COc1cc(Cc2cnc(N)nc2N)cc(OC)c1OC [Trimethoprim]
fitness
Conditions | first compound 1.25 µg/mL | first compound 2.5 µg/mL | first compound 5 µg/mL
B. subtilis 168 [2], partner 0.25 µg/mL | 0.683 | 0.604 | –
B. subtilis 168 [2], partner 0.5 µg/mL | 0.385 | – | 0.298
S. aureus DSM 20231 [1], partner 0.125 µg/mL | 0.715 | 0.741 | 0.68
S. aureus DSM 20231 [1], partner 0.25 µg/mL | 0.602 | 0.606 | 0.604
S. aureus DSM 20231 [1], partner 1 µg/mL | 0.0458 | 0.0312 | 0.0357

fitness, B. subtilis 168 [2], one replicate
Conditions | partner 0.1 µg/mL | partner 0.125 µg/mL | partner 0.2 µg/mL | partner 0.4 µg/mL | partner 1 µg/mL | partner 2 µg/mL
first compound 1.25 µg/mL | 0.944 | 0.737 | 0.744 | 0.526 | 0.309 | 0.332
first compound 2.5 µg/mL | 0.947 | 0.734 | 0.66 | 0.459 | 0.396 | 0.237
first compound 5 µg/mL | 0.873 | 0.626 | 0.642 | 0.358 | 0.068 | 0.0488

Conditions | Bliss interaction score
B. subtilis 168 [5] | -0.0973
S. aureus DSM 20231 [3] | 0.0513
S. aureus Newman [4] | -0.0902
S. pneumoniae D39V [6] | 0.0991

Cn1c2cccc(=O)c-2nc2ccccc21 [Pyocyanin] + CN(C)c1cc(NC(=O)CNC(C)(C)C)c(O)c2c1C[C@H]1C[C@H]3[C@H](N(C)C)C(O)=C(C(N)=O)C(=O)[C@@]3(O)C(O)=C1C2=O [Tigecycline]
fitness
Conditions | first compound 0.325 µg/mL | first compound 0.65 µg/mL | first compound 1.25 µg/mL | first compound 1.3 µg/mL | first compound 2.5 µg/mL | first compound 5 µg/mL
B. subtilis 168 [2], partner 0.039 µg/mL | – | – | 0.956 | – | 0.903 | 0.786
B. subtilis 168 [2], partner 0.078 µg/mL | – | – | 0.953 | – | 0.876 | 0.747
B. subtilis 168 [2], partner 0.156 µg/mL | – | – | 0.935 | – | 0.863 | 0.762
S. aureus Newman [7], partner 0.039 µg/mL | – | – | 0.879 | – | 0.81 | 0.426
S. aureus Newman [7], partner 0.078 µg/mL | – | – | 0.854 | – | 0.808 | 0.412
S. aureus Newman [7], partner 0.156 µg/mL | – | – | 0.886 | – | 0.807 | 0.401
S. pneumoniae D39V [8], partner 0.65 µg/mL | 0.965 | 0.975 | – | 0.697 | – | –
S. pneumoniae D39V [8], partner 1.3 µg/mL | ≥ 1 | 0.966 | – | 0.708 | – | –
S. pneumoniae D39V [8], partner 2.6 µg/mL | 0.979 | 0.928 | – | 0.668 | – | –

fitness, B. subtilis 168 [2], one replicate
Conditions | first compound 1.25 µg/mL | first compound 2.5 µg/mL | first compound 5 µg/mL
partner 0.125 µg/mL | 0.964 | 0.97 | 0.955
partner 0.25 µg/mL | 0.865 | 0.847 | 0.882
partner 0.5 µg/mL | 0.91 | 0.867 | 0.801

Conditions | Bliss interaction score
B. subtilis 168 [5] | -0.04
S. aureus DSM 20231 [3] | -0.0925
S. aureus Newman [4] | 0.0936
S. pneumoniae D39V [6] | 0.0539

Cn1c2cccc(=O)c-2nc2ccccc21 [Pyocyanin] + CN[C@@H]1[C@H](O[C@H]2[C@H](O[C@H]3[C@H](O)[C@@H](O)[C@H](N=C(N)N)[C@@H](O)[C@@H]3N=C(N)N)O[C@@H](C)[C@]2(O)C=O)O[C@@H](CO)[C@H](O)[C@H]1O [Streptomycin]
fitness
Conditions | partner 1 µg/mL | partner 2 µg/mL | partner 4 µg/mL | partner 8 µg/mL
B. subtilis 168 [2], first compound 1.25 µg/mL | – | 0.938 | 0.765 | –
B. subtilis 168 [2], first compound 2.5 µg/mL | – | 0.929 | 0.879 | –
B. subtilis 168 [2], first compound 5 µg/mL | – | 0.818 | 0.791 | 0.686
S. aureus Newman [7], first compound 1.25 µg/mL | 0.891 | 0.844 | – | –
S. aureus Newman [7], first compound 2.5 µg/mL | 0.796 | 0.693 | – | –
S. aureus Newman [7], first compound 5 µg/mL | 0.427 | 0.308 | 0.253 | –
S. pneumoniae D39V [8], first compound 0.325 µg/mL | – | ≥ 1 | ≥ 1 | 0.935
S. pneumoniae D39V [8], first compound 0.65 µg/mL | – | 0.943 | 0.889 | 0.791
S. pneumoniae D39V [8], first compound 1.3 µg/mL | – | – | 0.734 | 0.592

fitness, S. pneumoniae D39V [8], one replicate
Conditions | first compound 0.325 µg/mL | first compound 0.65 µg/mL | first compound 1.3 µg/mL
partner 2 µg/mL | – | – | 0.756
partner 16 µg/mL | 0.649 | 0.61 | 0.475

Conditions | Bliss interaction score
B. subtilis 168 [5] | 0.474
S. aureus DSM 20231 [3] | 0.109
S. aureus Newman [4] | -0.0643
S. pneumoniae D39V [6] | -0.103

CN(N=O)C(=O)N[C@@H](C=O)[C@@H](O)[C@H](O)[C@H](O)CO [Streptozotocin] + CN(C)c1cc(NC(=O)CNC(C)(C)C)c(O)c2c1C[C@H]1C[C@H]3[C@H](N(C)C)C(O)=C(C(N)=O)C(=O)[C@@]3(O)C(O)=C1C2=O [Tigecycline]
fitness
Conditions | first compound 0.15 µg/mL | first compound 0.3 µg/mL | first compound 0.6 µg/mL | first compound 1.2 µg/mL | first compound 2.4 µg/mL | first compound 4.8 µg/mL
S. aureus Newman [7], partner 0.039 µg/mL | 0.829 | 0.711 | 0.555 | – | – | –
S. aureus Newman [7], partner 0.078 µg/mL | 0.837 | 0.685 | 0.504 | – | – | –
S. aureus Newman [7], partner 0.156 µg/mL | 0.904 | 0.711 | 0.511 | – | – | –
S. pneumoniae D39V [8], partner 0.65 µg/mL | – | – | – | 0.934 | 0.965 | 0.973
S. pneumoniae D39V [8], partner 1.3 µg/mL | – | – | – | 0.952 | 0.987 | 0.939
S. pneumoniae D39V [8], partner 2.6 µg/mL | – | – | – | 0.964 | 0.948 | 0.956

fitness, B. subtilis 168 [2], one replicate
Conditions | partner 0.039 µg/mL | partner 0.078 µg/mL | partner 0.125 µg/mL | partner 0.156 µg/mL | partner 0.25 µg/mL | partner 0.5 µg/mL
first compound 0.15 µg/mL | 0.936 | 0.975 | 0.958 | 0.877 | 0.892 | 0.921
first compound 0.3 µg/mL | ≥ 1 | ≥ 1 | 0.995 | 0.907 | 0.836 | 0.86
first compound 0.6 µg/mL | ≥ 1 | 0.956 | 0.961 | 0.99 | 0.83 | 0.904

Conditions | Bliss interaction score
B. subtilis 168 [5] | -0.0405
S. aureus DSM 20231 [3] | 0.0681
S. aureus Newman [4] | 0.0493
S. pneumoniae D39V [6] | 0.0675

Cc1cc(NS(=O)(=O)c2ccc(N)cc2)no1 [Sulfamethoxazol] + CN(C)c1cc(NC(=O)CNC(C)(C)C)c(O)c2c1C[C@H]1C[C@H]3[C@H](N(C)C)C(O)=C(C(N)=O)C(=O)[C@@]3(O)C(O)=C1C2=O [Tigecycline]
fitness
Conditions | first compound 1 µg/mL | first compound 2 µg/mL | first compound 4 µg/mL
B. subtilis 168 [2], partner 0.039 µg/mL | 0.917 | 0.92 | ≥ 1
B. subtilis 168 [2], partner 0.078 µg/mL | 0.903 | 0.921 | 0.97
B. subtilis 168 [2], partner 0.156 µg/mL | 0.911 | 0.897 | 0.982
S. aureus Newman [7], partner 0.039 µg/mL | 0.991 | 0.996 | ≥ 1
S. aureus Newman [7], partner 0.078 µg/mL | 0.982 | 0.999 | 0.966
S. aureus Newman [7], partner 0.156 µg/mL | 0.986 | 0.983 | ≥ 1
S. pneumoniae D39V [8], partner 0.65 µg/mL | 0.944 | 0.961 | 0.937
S. pneumoniae D39V [8], partner 1.3 µg/mL | 0.952 | 0.932 | 0.937
S. pneumoniae D39V [8], partner 2.6 µg/mL | 0.936 | 0.937 | 0.95

fitness, one replicate
Conditions | partner 0.039 µg/mL | partner 0.078 µg/mL | partner 0.125 µg/mL | partner 0.156 µg/mL | partner 0.25 µg/mL | partner 0.5 µg/mL
B. subtilis 168 [2], first compound 0.5 µg/mL | ≥ 1 | 0.989 | – | 0.959 | – | –
B. subtilis 168 [2], first compound 1 µg/mL | – | – | 0.963 | – | 0.923 | 0.903
B. subtilis 168 [2], first compound 2 µg/mL | – | – | 0.942 | – | 0.88 | 0.859
B. subtilis 168 [2], first compound 4 µg/mL | – | – | 0.922 | – | 0.899 | 0.925
S. aureus Newman [7], first compound 8 µg/mL | 0.856 | 0.865 | – | 0.934 | – | –

Conditions | Bliss interaction score
B. subtilis 168 [5] | 0.0319
S. aureus DSM 20231 [3] | 0.108
S. aureus Newman [4] | 0.0399
S. pneumoniae D39V [6] | 0.0567
